Where two headings read alike, the source gives them in different places.
Columns and labels:
[1] = tested on: Myc-Max transcriptional activity; experiment: Cignal c-Myc luciferase reporter assay in LNCaP cells; type: cell-based; conditions: Homo sapiens, LNCaP
Procedure: (§1) Cell transfection was performed using TransIT-2020™ transfection reagents according to the manufacturer's instructions (Mirus™). LNCaP cells were plated at 10000 cells per well and treated for 1 day with the indicated concentration of compound. Myc reporter activity was measured using the Cignal Myc Reporter Assay Kit™ from Qiagen™ (#336841) according to the manufacturer's instructions. For the UBE2C reporter assay, 22rv1 cells were plated at 10000 cells per well in 96-well plates in RPMI media supplemented with 5% charcoal-stripped serum (CSS) and treated for 1 day with 1 μM, 10 μM and 25 μM of compound.
Compounds were subjected to experimental evaluation using the commercially available transcriptional assay Cignal c-Myc luciferase reporter assay in LNCaP cells. […] A transiently transfected Myc-driven luciferase reporter allowed the monitoring of Myc-regulated signal in LNCaP upon treatment with the in silico identified compounds.

[2] = tested on: LNCaP cells; experiment: PARP cleavage (apoptosis) by Western blot in LNCaP cells; type: cell-based; conditions: TABLE 2, LNCaP cells
Procedure: After 48 hours of treatment with Myc compounds, LNCaP cells were lysed, and protein sample preparation followed by Western blotting were performed. Blots were incubated with primary antibodies against c-Myc, PARP (Sigma™ 084M4766V), PARP cleaved-Asp214 (Sigma™ SAB4500487) and β-Actin (Sigma™ A2066) overnight at 4° C., followed by appropriate peroxidase-conjugated secondary antibodies. β-actin served as an internal control. Visualization of the immunocomplexes was done by an enhanced chemiluminescence detection system (Millipore™) followed by exposure to X-ray films.
Apoptosis. Myc inhibition induces cell death by cell cycle arrest and apoptosis. Cleavage of PARP-1 by caspases is considered a hallmark of apoptosis and so we measured the ability of compounds to induce PARP cleavage after treatment.

[3] = tested on: HO15.19 cells; experiment: Cell viability of Myc negative (c-Myc knockout) HO15.19 cells; type: cell-based; conditions: Rattus norvegicus, HO15.19; read-out: % inhibition Myc K.O cells (12 uM)
Procedure: LNCaP were plated at 5000 cells per well in RPMI 1640 containing 5% CSS in a 96-well plate, treated with test compounds (0-25 μM) for 96 hours. Cell density was measured using the PrestoBlue™ assay according to the manufacturer's protocol. The percentage of cell survival was normalized to the cell density of control wells treated by vehicle. Viability of Myc-negative […] cells was done similarly but in DMEM supplemented with 5% CSS.
The effect of hit compounds on Myc-driven cell proliferation was evaluated by measuring the cell viability of LNCaP cells after treatment with increasing concentrations of compounds.

[4] = tested on: Myc-Max/UBE2C downstream pathway; experiment: UBE2C promoter luciferase reporter assay in 22rv1 cells; type: cell-based; conditions: Homo sapiens, 25 μM
Procedure: as §1
Myc inhibition was recently reported to reduce levels of the constitutively active androgen receptor splice variant AR-V7 in 22rv1 cells. […] The dose-dependent reduction of luciferase levels by the identified hits indicates a Myc-related reduction of AR-V7 level in the cells (see TABLE 1). […] The AR-V7 reduction with the hits was confirmed by Western blot (FIG. 2B).

[5] = molecular target: T1, Myc-Max complex (Homo sapiens, UniProt P01106+P61244); experiment: Biolayer interferometry of Myc-Max binding to biotinylated E-box DNA; conditions: TABLE 2
T1 construct: GST tagged Myc (residues 368-454); Histidine tagged Max (residues 23-102); made in house; host or cells: E. coli BL21-DE3
T1 sequence (P01106 368-454): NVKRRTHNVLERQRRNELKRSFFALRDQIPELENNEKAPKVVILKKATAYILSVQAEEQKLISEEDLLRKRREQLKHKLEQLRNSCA
T1 sequence (P61244 23-102): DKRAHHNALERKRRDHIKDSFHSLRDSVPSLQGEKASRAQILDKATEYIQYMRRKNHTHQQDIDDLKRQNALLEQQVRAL
Procedure: Histidine tagged Max (residues 23-102) and GST tagged Myc (residues 368-454) were overexpressed in E. coli BL21-DE3 cells. Cells were co-lyzed in lysis buffer (20 mM Tris pH 8, 500 mM NaCl, 5% glycerol, 10 mM imidazole, 8 mM BME, 2.1 mM PMSF). After sonication and centrifugation, the complex was first purified by using a Ni-NTA affinity resin. After overnight dialysis to remove the imidazole, the protein sample was applied to a size exclusion chromatography equilibrated with (20 mM Tris pH 8, 150 mM NaCl, 5% glycerol, 0.2 mM TCEP). Fractions containing equal amount of Myc and Max on SDS PAGE were collected and used for the binding assay. The presence of both proteins was validated by Western blot using a specific antibody of each protein (Max (h2) Sc-8011 and c-Myc (9E10) Sc-40, Santa Cruz Biotechnology™)
The direct interaction between biotinylated E-box oligo ([…]) immobilized on a streptavidin biosensor and a purified Myc-Max complex (0.05 mg/ml) was quantified by BLI using OctetRED (ForteBio™). The DNA was first bound to the super-streptavidin sensors over 1000 sec at 25° C. The sensors were next moved into wells containing the reaction buffer (20 mM Tris pH 8, 150 mM NaCl, 5% glycerol, 0.2 mM TCEP, 5% dimethylsulfoxide) for measuring the baseline and next into the Myc-Max complex alone or in presence of the tested inhibitors to study the association of the complex to the DNA.
Direct Binding and disruption of protein-DNA interaction. To study the direct effect of our hit compounds VPC-70063 and VPC-70067 on the interaction between Myc-Max heterodimer and the DNA, we used Bio-Layer Interferometry (BLI, ForteBio™). This technique is a label-free technology allowing the measurement of direct interactions between two partners, one immobilized on a sensor and the other one present in a solution. We applied this technology to study the disruption of the interaction between a biotinylated E-box oligo immobilized on a streptavidin biosensor and a purified Myc-Max complex in presence of our compounds. Therefore, histidine-tagged Max (residues 23-102) and GST tagged Myc (residues 368-454) were overexpressed and co-purified. The fraction containing equal amount of Myc and Max was collected and used for the binding assay (FIG. 3B). The presence of both proteins was validated by Western blot using a specific antibody of each protein. […] Additionally, we tested the ability of our best compound VPC-70063 to disrupt the interaction of MYC/MAX with DNA in a dose dependent manner.

[6] = 25 μM, TABLE 3, read-out: % Inhibition 25 μM
[7] = TABLE 2, assay not named, values match Myc-Max transcriptional activity, read-out: IC50
[8] = 24 h, 25 μM, LNCaP cells, TABLE 1, read-out: Myc-Max transcriptional activity % inhibition (25 μM)
[9] = 25 μM, TABLE 5, read-out: % Inhibition 25 μM

O=C(NCc1cnn(Cc2ccccc2)c1)[C@@H]1COc2ccccc2O1 [VPC-70215]
inhibition at 25 µM [1, 6]: 101% | IC50 [1, 7]: 20 µM | PARP effect [2]: weak | inhibition at 12 µM [3]: 29%

CN1C(=O)/C(=C\C=C\c2ccco2)SC1=S [VPC-70064]
inhibition at 25 µM ([1]; 25 μM, TABLE 4, read-out: % Inhibition (25 μM)): 78% | inhibition at 25 µM [1, 8]: 78% | inhibition at 25 µM [4]: 64%

O=C(CCc1c[nH]c2ccccc12)Nc1nc2ccccc2[nH]1 [VPC-70223]
inhibition at 25 µM [1, 6]: 103% | IC50 [1, 7]: 10 µM | inhibition at 12 µM [3]: 40%

CC(C)C[C@H](NC(=O)C(Cc1ccccc1)NC(=O)CNC(=O)[C@H](C)NC(=O)[C@@H](N)Cc1ccc(O)cc1)C(=O)OCc1ccccc1 (stereo partly drawn) [VPC-70413]
IC50 [1]: 15 µM | inhibition at 25 µM ([1]; read-out: % Inhibition 25 μM): 114% | PARP effect [2]: weak | BLI binding [5]: weak

S=C(NCc1ccccc1)Nc1cccc(Cl)c1 [VPC-70477]
inhibition at 5 µM ([1]; TABLE 3): 3% | inhibition at 10 µM ([1]; TABLE 3): 30% | inhibition at 25 µM [1, 6]: 99%

O=C(O)CCC1CCN(C(=O)c2ccc(S(=O)(=O)NCc3cccs3)cc2)CC1 [VPC-70344]
inhibition at 25 µM [1, 9]: 49%

Cc1cccc(-c2cc(C(=O)Nc3ccc(S(=O)(=O)N4CCCCC4)cc3)n[nH]2)c1O [VPC-70390]
inhibition at 25 µM [1, 6]: 97% | IC50 [1, 7]: 9 µM

CC(=O)Nc1ccc(Nc2cc(Cl)c(C(F)(F)F)cc2[N+](=O)[O-])cc1 [VPC-70033]
inhibition at 25 µM [1, 6]: 81% | inhibition at 25 µM [1, 8]: 81% | IC50 [1, 7]: 10 µM | PARP effect [2]: nil | BLI binding [5]: weak | inhibition at 25 µM [4]: 51%

O=C(Nc1cccc(C(F)(F)F)c1)Nc1cccc(C(F)(F)F)c1 [VPC-70511]
inhibition at 5 µM ([1]; TABLE 3): 108% | inhibition at 10 µM ([1]; TABLE 3): 112% | inhibition at 25 µM [1, 6]: 102% | IC50 [1, 7]: 2 µM

S=C(NCc1ccncc1)Nc1cc(Cl)cc(Cl)c1 [VPC-70084]
inhibition at 25 µM [1, 6]: 80% | IC50 [1, 7]: 20 µM | PARP effect [2]: weak

O=S(O)(=Nc1cccc2[nH]ccc12)C1CCc2n[nH]nc2C1 (stereo not drawn) [VPC-70158]
inhibition at 25 µM [1, 9]: 41%

C[C@H](CCc1ccccc1)NC(=O)[C@H]1CCCN(C(=O)CCc2c[nH]c3ccccc23)C1 [VPC-70314]
inhibition at 25 µM [1, 6]: 93% | IC50 [1, 7]: 15 µM

CC(C)(C)CNC(=S)Nc1cccc(C(F)(F)F)c1 [VPC-70529]
inhibition at 5 µM ([1]; TABLE 3): 14% | inhibition at 10 µM ([1]; TABLE 3): 52% | inhibition at 25 µM [1, 6]: 94%

S=C(NCc1ccc(Cl)c(Cl)c1)Nc1cccnc1 [VPC-70053]
inhibition at 25 µM [1, 6]: 73% | inhibition at 25 µM [1, 8]: 73% | IC50 [1, 7]: 11 µM | inhibition at 25 µM [4]: 50%

Cc1ccc(O)c(-c2cc(C(=O)Nc3ccc(S(=O)(=O)N4CCCCC4)cc3)n[nH]2)c1 [VPC-70389]
inhibition at 25 µM [1, 9]: 58%

COCCn1c(Cc2ccccc2)nnc1SCC(=O)c1ccc2c(c1)CCC(=O)N2 [VPC-70359]
inhibition at 25 µM [1, 9]: 41%

CC(C)(C)[C@H]1CCc2sc(C(=O)N3CCC(C(N)=O)CC3)cc2C1 [VPC-70068]
inhibition at 25 µM [1, 6]: 73% | inhibition at 25 µM [1, 8]: 73% | PARP effect [2]: average | inhibition at 25 µM [4]: 58%

CCCc1cc(=O)oc2cc(C)cc(OCC(=O)N[C@@H](C)C(=O)O)c12 [VPC-70404]
inhibition at 25 µM [1, 9]: 53%

CCn1c(CC(=O)Nc2cccc(C)c2)nnc1SCC(=O)Nc1cc(F)ccc1F [VPC-70392]
inhibition at 25 µM [1, 9]: 58%

S=C(NCc1cccs1)Nc1ccc(Cl)c(Cl)c1 [VPC-70458]
inhibition at 5 µM ([1]; TABLE 3): 42% | inhibition at 10 µM ([1]; TABLE 3): 104% | inhibition at 25 µM [1, 6]: 86%

C[C@@H](NC(=O)NC[C@@H](O)COc1cccc(F)c1)c1cccs1 [VPC-70247]
inhibition at 25 µM [1, 9]: 35%

COc1ccccc1-c1noc(CNC(=O)N[C@H](Cc2c[nH]c3ccccc23)C(=O)O)n1 [VPC-70345]
inhibition at 25 µM [1, 9]: 51%

S=C(NCc1ccccc1)Nc1cc(Cl)cc(Cl)c1 [VPC-70498]
inhibition at 5 µM ([1]; TABLE 3): 36% | inhibition at 10 µM ([1]; TABLE 3): 106% | inhibition at 25 µM [1, 6]: 100%

O=C(NCCNS(=O)(=O)c1ccccc1)NNC(=O)c1cccc(C(F)(F)F)c1 [VPC-70549]
inhibition at 12.5 µM ([1]; TABLE 3): 75%

C=C(C)COc1cccc(NC(=S)NCc2cccc(C(F)(F)F)c2)c1 [VPC-70489]
inhibition at 5 µM ([1]; TABLE 3): 38% | inhibition at 10 µM ([1]; TABLE 3): 86% | inhibition at 25 µM [1, 6]: 99%

O=C(NCCc1c[nH]c2ccccc12)c1coc2ccccc2c1=O [VPC-70219]
inhibition at 25 µM [1, 9]: 67% | IC50 [1, 7]: > 25 µM

O=C(CSCCO)Nc1ccc(C23CC4CC(CC(C4)C2)C3)cc1 [VPC-70146]
inhibition at 25 µM [1, 9]: 52%

S=C(NCc1ccccc1)Nc1cccc(COc2ccccc2)c1 [VPC-70526]
inhibition at 5 µM ([1]; TABLE 3): 41% | inhibition at 10 µM ([1]; TABLE 3): 62% | inhibition at 25 µM [1, 6]: 94%

NC(=O)c1ccc(NC(=O)COC(=O)[C@H](Cc2ccccc2)NC(=O)c2ccccc2)cc1 [VPC-70339]
inhibition at 25 µM [1, 9]: 50%

FC(F)(F)c1cc(Br)cc(NC(=S)NCc2cccs2)c1 [VPC-70495]
inhibition at 5 µM ([1]; TABLE 3): 107% | inhibition at 10 µM ([1]; TABLE 3): 80% | inhibition at 25 µM [1, 6]: 100% | IC50 [1, 7]: 5 µM

Cc1nc(C(=O)NC[C@@H](O)COCc2ccccc2)c2ccccn12 [VPC-70267]
inhibition at 25 µM [1, 9]: 47%

FC(F)Oc1ccc(CNC(=S)Nc2cccc(C(F)(F)F)c2)cc1 [VPC-70523]
inhibition at 5 µM ([1]; TABLE 3): -4% | inhibition at 10 µM ([1]; TABLE 3): 104% | inhibition at 25 µM [1, 6]: 102%

FC(F)(F)c1cccc(NC(=S)NCc2ccccc2C(F)(F)F)c1 [VPC-70535]
inhibition at 12.5 µM ([1]; TABLE 3): 95%

O=C(NCCCc1ccccc1)NC[C@](O)(c1ccccc1)C(F)(F)F [VPC-70205]
inhibition at 25 µM [1, 9]: 50%

Cc1cc(NC(=S)NCC(C)C)cc(C(F)(F)F)c1 [VPC-70478]
inhibition at 5 µM ([1]; TABLE 3): 26% | inhibition at 10 µM ([1]; TABLE 3): 65% | inhibition at 25 µM [1, 6]: 91%

C[C@@H](NC1=NS(=O)(=O)c2ccccc21)C(=O)NCCCSc1ccccc1 [VPC-70258]
inhibition at 25 µM [1, 9]: 34%
